Test results taken from patent publication US20250313528A1, “NOVEL COMPOUND AND PHARMACEUTICAL COMPOSITION FOR PREVENTING OR TREATING PULMONARY FIBROSIS COMPRISING SAME AS ACTIVE INGREDIENT” (GIL MEDICAL CENTER, priority 2022, published 2025).

Tests used:
Type in all cases: cell-based, human
fibronectin and α-SMA [1] = test: Western blotting of fibrosis-related proteins in TGF-β1-induced MRC-5 cells; conditions: MRC-5, TGF-β1 1 ng/ml, 10 μM, FIG. 4b
Method: Since the overexpression of extracellular matrix components such as fibronectin and α-SMA serves as an indicator of fibrotic changes in tissues, MRC-5 cells induced to undergo fibrosis by TGF-β1 were treated with each compound at different concentrations to compare the expression levels of fibronectin and α-SMA.
(§1) Specifically, to extract fibronectin and α-SMA proteins, the cells were washed once with cold PBS and then RIPA buffer (150 mM NaCl, 0.5% Triton X-100, 50 mM Tris-HCl, pH 7.4, 25 mM NaF, 20 mM EGTA), which was added with a protease inhibitor cocktail, was added thereto to lyse the cells. Then, the proteins were quantified using a BCA protein assay kit. All protein samples were subjected to electrophoresis at 10 μg on 8% to 10% PAGE gels and then transferred to 0.2 μm PVDF membranes (EMD Millipore, MA, USA). The membranes to which the protein was transferred were blocked with 5% BSA or 5% skim milk for 1 hour, and then primary antibodies were added thereto and incubated overnight at 4° C. The following day, the membranes were washed three times with PBST, and then HRP-conjugated secondary antibodies were added and reacted at room temperature for 1 hour. The PVDF membranes prepared through such procedures were smeared with ECL (Luminata™ Crescendo, EMD Millipore) and exposed to a fluorescence reader to confirm the level of protein expression.
The specific experimental methods are the same as in Example 2, and sulforaphane was treated at a concentration of 20 μM, Compound 1 at 5 μM, 10 μM, and 20 μM, and Compound 2 at 2.5 μM, 5 μM, and 10 μM, respectively.
(§2) To compare the changes in fibrosis-related protein expression by treating normal MRC-5 and diseased DHLF-IPF cell lines induced with pulmonary fibrosis by TGF-β1 with SFN and the two candidate compounds, Western blotting was performed.
(§3) The specific experimental methods are the same as in Example 2. TGF-β1 was treated at 1 ng/ml to induce fibrosis, and sulforaphane and the two compounds each were treated at a concentration of 10 μM.

fibronectin and α-SMA [2] = test: Western blotting of fibrosis-related proteins in TGF-β1-induced DHLF-IPF cells; conditions: TGF-β1 1 ng/ml, 10 μM, FIG. 4b
Method: as §1, §2, §3

FN, COL1A1, and α-SMA [3] = test: qRT-PCR of fibrosis-related genes in TGF-β1-induced MRC-5 cells; conditions: MRC-5, 10 μM pretreatment 1 hour, TGF-β1 1 ng/ml 48 hours, FIG. 4c/4d
Method: (§4) MRC-5 and DHLF-IPF cells were each cultured in growth medium, and the medium was removed. […] The medium was then removed, and the cells were washed once with PBS. Intracellular total RNA was extracted from the cultured cells using TRIzol reagent (TaKaRa Bio Inc., Japan) for gene expression analysis. 1 mL of TRIzol reagent was added to lyse the cells and denature the tissue. The lysate was transferred to each 1.5 mL tube, and 200 μL of chloroform was added thereto, followed by vortexing for 20 seconds to ensure complete mixing. After incubating at room temperature for 15 minutes, the mixture was centrifuged at 14,000 rpm for 20 minutes to obtain the supernatant. After adding an equal volume of isopropyl alcohol, the tubes were inverted and incubated at room temperature for 10 minutes. The sample was centrifuged at 14,000 rpm for 15 minutes to obtain an RNA pellet, which was washed by centrifugation with 70% ethanol for use on RNA at 14,000 rpm for 5 minutes, and dried for 5 minutes. The dried RNA sample was added with 20 μL of distilled water treated with 0.1% diethyl pyrocarbonate (DEPC) to dissolve the pallet and the resultant was used as a sample for cDNA synthesis. 1 μL of the same was used to measure the RNA concentration and purity at O.D. 260/280 nm using a Nanodrop.
(§5) Single-stranded cDNA synthesis was performed by mixing 1 μg of the extracted total RNA with 1 μL of oligo-d(T) primer ([…]) and 10 mM dNTP (TaKaRa Bio Inc., Japan), reacting at 65° C. for 5 minutes, followed by rapid cooling. To this template, 4 μL of 5×RT buffer, 0.5 μL of RNA inhibitor, and 100 units of RTase (TaKaRa Bio Inc., Japan) were added, and the total volume was adjusted to 20 μL using DEPC-treated distilled water. […]
(§6) Each gene expression level was measured using real-time PCR. […] The specificity of the amplified product was confirmed through melting curve analysis, and the target genes were quantified and compared using GAPDH as a control gene.

FN, COL1A1, and α-SMA [4] = test: qRT-PCR of fibrosis-related genes in TGF-β1-induced DHLF-IPF cells; conditions: 10 μM pretreatment 1 hour, TGF-β1 1 ng/ml 48 hours, FIG. 4c/4d
Method: as §4, §5, §6

C[S+]([O-])CCCCN=C=S (stereo not shown) [sulforaphane, reference compound]
reduced: expression levels of fibronectin and α-SMA protein (fibronectin and α-SMA [1]) | expression levels of fibronectin and α-SMA protein (fibronectin and α-SMA [2]) | gene expression levels of FN, COL1A1, and α-SMA (FN, COL1A1, and α-SMA [3]) | gene expression levels of FN, COL1A1, and α-SMA (FN, COL1A1, and α-SMA [4])
